We go through 78 compounds from paper PMC12040169 (PLOS Biology, 2025).

This data set is described as follows: in vitro. The settings on record: human, hela cells, % viability.
The viability is a read-out of living cells in per cent, often relative to untreated cells. In the case of `O=C(c1[nH]c2ccccc2c1NS(=O)(=O)Cc1ccccc1)N1CCOCC1` [CBK050067], the viability at 28.5 h, 10 µM worked out at 99.5%.

Regarding `Cc1c(Cl)cccc1S(=O)(=O)Nc1c(C(=O)N2CCOCC2)[nH]c2ccccc12` [CBK050076], the viability at 28.5 h, 10 µM was found to be 109%.

Turning to `O=C(Nc1ccc(F)cc1)c1[nH]c2ccccc2c1NS(=O)(=O)c1ccc(C(F)(F)F)cc1[N+](=O)[O-]` [CBK050090], the viability at 28.5 h, 10 µM is 90.1%.

Regarding `O=C(Nc1ccc(F)cc1)c1[nH]c2ccccc2c1NS(=O)(=O)c1cc(Cl)sc1Cl` [CBK050094], the viability at 28.5 h, 10 µM came out at 95%.

Take `Cc1noc(C)c1S(=O)(=O)Nc1c(C(=O)Nc2ccc(F)cc2)[nH]c2ccccc12` [CBK050099]: the viability at 28.5 h, 10 µM was found to be 119%.

For `CCN(CC)C(=O)c1[nH]c2ccccc2c1NS(=O)(=O)Cc1ccccc1` [CBK050107], the viability at 28.5 h, 10 µM is 108%.

On to `CCN(CC)C(=O)c1[nH]c2ccccc2c1NS(=O)(=O)c1ccc(C(F)(F)F)cc1[N+](=O)[O-]` [CBK050109], for which the viability at 28.5 h, 10 µM came to 103%.

Turning to `CCCc1ccc(S(=O)(=O)Nc2c(C(=O)N(CC)CC)[nH]c3ccccc23)cc1` [CBK050111], the viability at 28.5 h, 10 µM came out at 87.1%.

With `CCN(CC)C(=O)c1[nH]c2ccccc2c1NS(=O)(=O)c1c(C)noc1C` [CBK050117], the viability at 28.5 h, 10 µM is 89.1%.

Turning to `COc1ccc([C@@]23CC=C(N(Cc4ccccc4)C(=O)Nc4ccc(F)c(F)c4)C[C@@H]2N(C)CC3)cc1OC` [CBK050179], the viability at 28.5 h, 10 µM came to 94.9%.

Consider `COc1cccc([C@H]2CC[C@H](N(CCN(C)C)C(=O)Nc3cc(F)ccc3F)CC2)c1OC` [CBK050184], for which the viability at 28.5 h, 10 µM was found to be 113%.

Consider `O=C(CCS(=O)(=O)c1ccccc1)Nc1c(F)cc(F)cc1OC1CCNCC1` [CBK050226T], for which the viability at 28.5 h, 10 µM worked out at 87.4%.

Consider `COc1cc(F)cc(OC2CCNCC2)c1NC(=O)Cc1cn(C)c2ccccc12` [CBK050245T], for which the viability at 28.5 h, 10 µM worked out at 105%.

`Cc1nn(C)c(N2CCNCC2)c1NC(=O)COc1ccccc1` [CBK050249T]: the viability at 28.5 h, 10 µM turned out to be 103%.

With `Cc1nn(C)c(N2CCNCC2)c1NC(=O)Cc1cn(C)c2ccccc12` [CBK050254T], the viability at 28.5 h, 10 µM was 94.5%.

For the compound `Cc1nn(C)c(N2CCNCC2)c1NC(=O)CN(C)C(=O)c1ccccc1` [CBK050255T], the viability at 28.5 h, 10 µM came out at 109%.

Consider `CSc1nc(NC(=O)CCCc2ccccc2)cc(N2CCNCC2)n1` [CBK050258T], for which the viability at 28.5 h, 10 µM stood at 111%.

As to `COc1ccc(CCCC(=O)Nc2cc(N3CCNCC3)nc(SC)n2)cc1OC` [CBK050261T], the viability at 28.5 h, 10 µM worked out at 101%.

As to `CSc1nc(NC(=O)Cc2c[nH]c3ccccc23)cc(N2CCNCC2)n1` [CBK050265T], the viability at 28.5 h, 10 µM was found to be 84.4%.

Regarding `CSc1nc(NC(=O)c2ccccc2)cc(N2CCNCC2)n1` [CBK050266T], the viability at 28.5 h, 10 µM turned out to be 93.6%.

Consider `O=C(Nc1c(F)cc(F)cc1OC1CCNCC1)c1ccnc2ccccc12` [CBK050277T], for which the viability at 28.5 h, 10 µM amounted to 94.9%.

In the case of `CCOc1ccsc1C(=O)Nc1c(OC)cc(F)cc1OC1CCNCC1` [CBK050292T], the viability at 28.5 h, 10 µM is 94.3%.

Take `COc1cc(F)cc(OC2CCNCC2)c1NC(=O)c1cnccn1` [CBK050296T]: the viability at 28.5 h, 10 µM is 90.3%.

Consider `Cc1nn(C)c(N2CCNCC2)c1NC(=O)c1cccs1` [CBK050303T], for which the viability at 28.5 h, 10 µM was determined as 91.9%.

On to `COc1ccc(C(=O)Nc2c(C)nn(C)c2N2CCNCC2)cc1` [CBK050306T], for which the viability at 28.5 h, 10 µM came to 94.5%.

With `Cc1nn(C)c(N2CCNCC2)c1NC(=O)c1cnccn1` [CBK050308T], the viability at 28.5 h, 10 µM was 86.3%.

Regarding `CSc1nc(NC(=O)c2ccoc2)cc(N2CCNCC2)n1` [CBK050314T], the viability at 28.5 h, 10 µM was 88.9%.

For the compound `CSc1nc(NC(=O)c2cccs2)cc(N2CCNCC2)n1` [CBK050315T], the viability at 28.5 h, 10 µM was 89.7%.

Turning to `Cc1oc(-c2ccccc2)cc1C(=O)Nc1c(F)cc(F)cc1OC1CCNCC1` [CBK050326T], the viability at 28.5 h, 10 µM came out at 89.8%.

In the case of `O=C(Nc1c(F)cc(F)cc1OC1CCNCC1)c1coc2c1C(=O)CCC2` [CBK050331T], the viability at 28.5 h, 10 µM amounted to 93.9%.

Turning to `CC1(C)CC(=O)C=C(C(=O)Nc2c(F)cc(F)cc2OC2CCNCC2)O1` [CBK050332T], the viability at 28.5 h, 10 µM was determined as 110%.

For `COc1cc(F)cc(OC2CCNCC2)c1NC(=O)/C=C/c1cccnc1` [CBK050344T], the viability at 28.5 h, 10 µM was 103%.

In the case of `COc1cc(F)cc(OC2CCNCC2)c1NC(=O)c1c(-c2ccccc2)noc1C` [CBK050350T], the viability at 28.5 h, 10 µM was 91.8%.

Turning to `Cc1nn(C)c(N2CCNCC2)c1NC(=O)c1cc(-c2ccccc2)oc1C` [CBK050356T], the viability at 28.5 h, 10 µM came out at 92.8%.

Take `CSc1nc(NC(=O)c2cc(-c3ccccc3)oc2C)cc(N2CCNCC2)n1` [CBK050364T]: the viability at 28.5 h, 10 µM came out at 89.9%.

In the case of `CC(=O)N1CCOc2ccccc21` [CBK050388], the viability at 28.5 h, 10 µM came out at 92.7%.

For `CCN(CC)C(=O)c1sccc1NS(=O)(=O)Cc1ccccc1` [CBK050393], the viability at 28.5 h, 10 µM amounted to 106%.

In the case of `CCOC(=O)c1c(NS(=O)(=O)c2cc(Cl)sc2Cl)sc2c1CCCC2` [CBK050397], the viability at 28.5 h, 10 µM was determined as 96.1%.

As for `O=C(Nc1ccc(F)cc1)c1ccc(NS(=O)(=O)Cc2ccccc2[N+](=O)[O-])cc1` [CBK050405], the viability at 28.5 h, 10 µM is 93%.

Take `O=C(Nc1ccc(F)cc1)c1cccc(NS(=O)(=O)c2cc(Br)c(Cl)s2)c1` [CBK050410]: the viability at 28.5 h, 10 µM stood at 93.4%.

`O=S(=O)(Nc1cccc(-c2nnn[nH]2)c1)c1ccc(F)cc1` [CBK050470]: the viability at 28.5 h, 10 µM worked out at 88.5%.

As for `Cn1nccc1NS(=O)(=O)c1ccc(F)cc1` [CBK050484], the viability at 28.5 h, 10 µM stood at 106%.

For `Cc1cnc(CNS(=O)(=O)c2ccc(F)cc2)cn1` [CBK050489], the viability at 28.5 h, 10 µM was 107%.

`CN1CCN(S(=O)(=O)c2ccc(F)cc2)CC1` [CBK050491]: the viability at 28.5 h, 10 µM was 88%.

Consider `O=S(=O)(Nc1nc2cc(Cl)ccc2o1)c1ccc(Oc2ccccc2)cc1` [CBK050499], for which the viability at 28.5 h, 10 µM came out at 97.8%.

As for `COc1ccc(S(=O)(=O)Nc2nc(C)c(C(=O)Nc3ccc(F)cc3)s2)cc1OC` [CBK050538], the viability at 28.5 h, 10 µM was 103%.

Regarding `Cc1nc(NS(=O)(=O)c2c(C)noc2C)sc1C(=O)N1CCOCC1` [CBK050574], the viability at 28.5 h, 10 µM came to 98.4%.

Consider `CCN(CC)C(=O)c1sc2ncccc2c1NS(=O)(=O)c1cc(Cl)sc1Cl` [CBK050615], for which the viability at 28.5 h, 10 µM amounted to 92.2%.

Consider `CCN(CC)C(=O)c1sc2ncccc2c1NS(=O)(=O)c1c(C)noc1C` [CBK050617], for which the viability at 28.5 h, 10 µM was determined as 115%.

Take `COc1ccc(S(=O)(=O)Nc2nccnc2-c2ccc(CN3C(=O)CCC3=O)cc2)cc1` [CBK050699]: the viability at 28.5 h, 10 µM was found to be 110%.

On to `CC(=O)Nc1cccc(-c2nccnc2NS(=O)(=O)c2cccs2)c1` [CBK050760], for which the viability at 28.5 h, 10 µM stood at 92.7%.

With `CCCS(=O)(=O)Nc1nccnc1-c1cccs1` [CBK050763], the viability at 28.5 h, 10 µM was 89.4%.

As to `O=S(=O)(Cc1ccccc1)Nc1nccnc1-c1cccs1` [CBK050766], the viability at 28.5 h, 10 µM is 91.3%.

For the compound `CCCCc1ccc(S(=O)(=O)Nc2nccnc2-c2cccs2)cc1` [CBK050770], the viability at 28.5 h, 10 µM was 90.4%.

Regarding `COc1ccc(S(=O)(=O)Nc2nccnc2-c2cccs2)cc1OC` [CBK050774], the viability at 28.5 h, 10 µM stood at 104%.

Consider `CN(C)c1ccc(-c2nccnc2NS(=O)(=O)c2ccc3ccccc3c2)cc1` [CBK050794], for which the viability at 28.5 h, 10 µM was 93.4%.

As to `CN(C)c1ccc(-c2nccnc2NS(=O)(=O)c2ccc(C(F)(F)F)cc2)cc1` [CBK050802], the viability at 28.5 h, 10 µM was determined as 95.1%.

On to `CN(C)c1ccc(-c2nccnc2NS(=O)(=O)c2cccs2)cc1` [CBK050804], for which the viability at 28.5 h, 10 µM worked out at 90.5%.

Turning to `O=C(O)c1nccnc1-c1ccc(COc2ccccc2)cc1` [CBK050806], the viability at 28.5 h, 10 µM stood at 90.2%.

Consider `O=C(O)c1nccnc1-c1ccc(COc2cccc3ccccc23)cc1` [CBK050810], for which the viability at 28.5 h, 10 µM amounted to 95.4%.

Take `O=C(O)c1nccnc1-c1ccc(Cn2ccc3ccccc32)cc1` [CBK050811]: the viability at 28.5 h, 10 µM came out at 100%.

`Cc1nc2cc(OCc3ccc(-c4nccnc4-c4nnn[nH]4)cc3)ccc2s1` [CBK050820]: the viability at 28.5 h, 10 µM amounted to 108%.

With `O=C(NCc1ccncc1)c1nccnc1-c1ccc(COc2ccccc2)cc1` [CBK050836], the viability at 28.5 h, 10 µM came to 88.1%.

Consider `O=C(Nc1nccs1)c1nccnc1-c1ccc(COc2ccccc2)cc1` [CBK050839], for which the viability at 28.5 h, 10 µM amounted to 95.6%.

As for `O=C(NO)c1nccnc1-c1ccc(COc2ccccc2)cc1` [CBK050841], the viability at 28.5 h, 10 µM came to 96.4%.

Regarding `O=C(NCCOc1ccccc1)c1nccnc1-c1ccc(COc2ccc3c(c2)CCCC3)cc1` [CBK050852], the viability at 28.5 h, 10 µM turned out to be 91.2%.

As to `CCCS(=O)(=O)Nc1nccnc1-c1ccc(Oc2ccccc2)cc1` [CBK050908], the viability at 28.5 h, 10 µM worked out at 106%.

As to `CS(=O)(=O)Nc1nccnc1-c1ccc2c(c1)OCO2` [CBK050934], the viability at 28.5 h, 10 µM turned out to be 95.1%.

In the case of `Cc1ccccc1S(=O)(=O)Nc1nccnc1-c1ccc2c(c1)OCO2` [CBK050941], the viability at 28.5 h, 10 µM came to 122%.

As to `O=S(=O)(Nc1nccnc1-c1ccc2c(c1)OCO2)c1cccc(Cl)c1` [CBK050951], the viability at 28.5 h, 10 µM is 92.4%.

On to `CN1CCN(c2cc(-c3ccncc3)nc3ccccc23)CC1` [CBK050976B], for which the viability at 28.5 h, 10 µM turned out to be 89.1%.

As to `O=S(=O)(Nc1ccc2nsnc2c1)c1ccc(F)cc1` [CBK051010], the viability at 28.5 h, 10 µM was 90.2%.

`COc1ccc([C@@]23CC[C@@H](NC(=O)Nc4ccon4)C[C@@H]2N(C)CC3)cc1OC` [CBK051069T]: the viability at 28.5 h, 10 µM came to 97%.

As for `CCOC(=O)C1CCN(S(=O)(=O)c2ccccc2)CC1` [CBK051091], the viability at 28.5 h, 10 µM came to 107%.

`O=C(NCCc1c[nH]c2ccccc12)NC(=O)C1CCNCC1` [CBK051094]: the viability at 28.5 h, 10 µM was found to be 90.2%.

Regarding `C=CCN1CCC(C(=O)NC(=O)NCC2COc3ccccc3O2)CC1` (stereo not drawn) [CBK051099], the viability at 28.5 h, 10 µM is 84.2%.

On to `CCOC(=O)C1CCN(S(=O)(=O)c2ccccc2C#N)CC1` [CBK051111], for which the viability at 28.5 h, 10 µM was determined as 93.6%.

For the compound `CCOC(=O)C1CCN(S(=O)(=O)c2c(C)noc2C)CC1` [CBK051112], the viability at 28.5 h, 10 µM turned out to be 96.9%.
